Ki data for four compounds are collected here from article PMC12027702, “Evaluation of Tyrosinase Inhibitory Activity of Carbathioamidopyrazoles and Their Potential Application in Cosmetic Products and Melanoma Treatment” (International Journal of Molecular Sciences, 2025).

The target of this test is T1, mushroom tyrosinase.
T1 construct: gene PPO3; PDB 2Y9X is only the docking model
Kind of test: Dixon plot, L-DOPA oxidation, absorbance at […] nm. It is filed as biochemical. The conditions noted are these: L-DOPA substrate, phosphate buffer pH 6.88, 20 °C, 20 min preincubation, 10% DMSO; competitive.
With `NC(=S)n1nc(-c2ccccc2)cc1O` [compound 3, 1-[amino(thioxo)methyl]-5-hydroxy-3-phenyl-1Hpyrazole], the affinity corresponds to a Ki of 118 µM.
Consider `CCc1cc(CC)n(C(N)=S)n1` [compound 2, 1-[amino(thioxo)methyl]-3,5-diethyl-1Hpyrazole], for which the affinity corresponds to a Ki of 64.4 µM.
For `Cc1cc(O)n(C(N)=S)n1` [compound 4, 1-[amino(thioxo)methyl]-5-hydroxy-3-methyl-1H-pyrazole] the value was 7.88 µM; for `Cc1cc(C)n(C(N)=S)n1` [compound 1, 1-[amino(thioxo)methyl]-3,5-dimethyl-1Hpyrazole], 14.6 µM.
